Results reported in patent US7144862B2, “Orally administered peptides to ameliorate atherosclerosis” (The Regents of the University of California, priority 2000, dated 2006).
Several values for one entry are separate records, joined by “and”; a condition that tells them apart may be missing. Identical values can stand only once.

How the values were obtained:
[1] = system: mice infected with Influenza A virus; assay type: in vivo, mouse; settings: 20 micrograms daily injected after infection
[2] = system: LDL receptor null mice on a Western diet; assay: Aortic root lesions, oral gavage twice daily for 6 weeks; assay type: in vivo, mouse; settings: oral gavage twice daily for 6 weeks (2.5 mg in liposomes)
Description: Groups of LDL receptor null mice were placed on a Western diet and were given by oral gavage, 100 μl of saline alone (Saline), n=4 animals, or 100 μl of liposomes without D-4F (Liposomes), n=5 animals, or 2.5 mg D-4F peptide in 100 μl liposomes (D-4F in liposomes), n=6 animals, twice daily for 6 weeks. The mice were bled, and subsequently sacrificed, aortic root fixed, sectioned and the extent of Oil Red O staining in fatty streak lesions quantified.
Female LDL receptor null or apo E null mice on a C57BL/6J background were purchased from the Jackson Laboratory, Bar Harbor, Me. The LDL receptor null mice were maintained on Purina chow diet (Ralston Purina Co.) until they were 4 weeks old when they were switched to a Western diet (Teklad, Madison, Wis., diet # 88137) for 6 weeks. The apo E null mice were maintained on Purina chow diet throughout the study LDL receptor null mice received the test peptide or a vehicle control by gastric gavage twice daily for the periods indicated in the figure legends. […]
Mice were bled under anesthesia from the retro-orbital venous plexus, in accordance with protocols approved by the UCLA Animal Research Committee. Atherosclerotic lesions were measured as previously described^9.

[3] = Plasma total and HDL cholesterol after oral D-4F; assay type: in vivo, mouse; settings: for Mean HDL-cholesterol / plasma total cholesterol concentration: apo E null mice
Description: Protein (Navab et al. (2000) J Lipid Res. 41: 1481–1494) and cholesterol (Van Lenten et al. (2001) Circulation, 103: 2283–2288) content of lipoproteins and statistical analyses were performed as described by Van Lenten et al. (2001) Circulation, 103: 2283–2288, with significance defined as P<0.05.

[4] = system: human artery wall cell cocultures; assay: Lipoproteins from mice given peptide by gavage tested in human artery wall cell cocultures (monocyte chemotactic activity); settings: 4F, 100 μg by oral gavage, LDL receptor deficient mice, blood after 6 hrs
Description: Groups of LDL receptor-deficient mice (n=3) were administered the D-peptides or the saline vehicle by gavage. […] Blood was collected from retroorbital sinus under mild anesthesia 17 hrs later. LDL was isolated from plasma by FPLC. Cocultures of artery wall cells were incubated with medium alone (NO ADDITION), control LDL from normal subjects (LDL), LDL plus control HDL from normal subjects (+HDL). […] The cocultures were incubated for 4 hrs at 37° C. in the presence of 10% LPDS. The supernatants were then discarded, the cocultures were washed and incubated with culture medium without serum or LPDS for an additional 4 hrs. This conditioned medium was collected and analyzed for monocyte chemotactic activity. The values are mean±SD of quadruplicate cocultures.
Blood was collect after 6 hrs, plasma HDL and LDL were isolated by gel filtration (FPLC) and examined in the cocultures. […] Human LDL at 200 μg protein/ml was added to human artery wall cell cocultures together with human HDL (hHDL) at 350 μg protein/ml or mouse HDL (mHDL) at 100 μg cholesterol/ml taken from mice that received saline (Saline Rx) or L-4F (L-4F Rx) or D-4F (D-4F Rx) and monocyte chemotactic activity was determined as described herein. […] On the right, mouse LDL (mLDL) was isolated from mice receiving saline (Saline Rx) or L-4F (L4F Rx) or D-4F (D-4F Rx) and was added at 100 μg cholesterol/ml to the artery wall cell cocultures without HDL and monocyte chemotactic activity determined. Values are mean±SD) for four wells in two independent experiments.
Either saline or 2F synthesized from D amino acids or from L amino acids was instilled in the stomachs of mice by gavage (instillation in the stomach by tube). After gavage the mice were bled and their LDL isolated and added to the human artery wall cell cocultures.
The animals were bled 1.5, 3 or 6 hours later and their HDL, LDL, and VLDL/IDL isolated.
Human aortic endothelial and smooth muscle cells were isolated and cultured as previously described (Id.). Cellular oxidation of LDL in the presence and absence of HDL was determined as described (Id.). Human blood monocytes were isolated after obtaining informed consent and monocyte chemotaxis was determined as described previously^5.

[5] = Solubility in PBS; assay type: physicochemical; settings: in PBS
Description: The peptides were purified on a preparative Vydac C4 column by reversed-phase (RP)-HPLC using water (with 0.1% trifluoroacetic acid) and acetonitrile (0.1% trifluoroacetic acid). The purity and the retention times of the peptides were determined on an analytical Vydac C18 column using a gradient of 25%-58% acetonitrile in water containing 0.1% TFA. The purity of these peptides was also confirmed by mass spectrometry. The mass was in agreement with the calculated molecular weight. Although both the 3F peptides and 4F have additional Phe residues compared to 2F, the retention times of these peptides on the C18 column are not very different (˜22 min). A sudden increase in the retention time is apparent with 5F, 6F and 7F (˜26 min). With increasing number of Phe residues, the solubility of these peptides in PBS decreases.

[6] = Surface pressure measurements: monolayer exclusion pressure; assay type: physicochemical; settings: EPC monolayer; reproducibility ± 1 dyn/cm
Description: An insoluble monolayer of egg phosphatidylcholine (EPC) was spread at the air-water interface in a Teflon dish at room temperature to give an initial surface pressure (πi) in the range of 5–45 dyn/cm. A solution of peptides in PBS containing 1.5M Gdn. HCl was carefully injected in to the subphase to give a final concentration of 50 μg/dL. The Gdn. HCl was diluted in the subphase to a final concentration of ≦1 mM to allow the peptides to renature. The subphase was stirred continuously and the increase in EPC monolayer surface pressure (Δπ) was recorded until a steady state value was obtained. The value of the initial surface pressure (πi) at which the peptides no longer penetrate the EYPC monolayer i.e. the exclusion pressure (πe), was calculated by extrapolating the πi vs Δπ linear regression fit to Δπ=0 dyn/cm.

[7] = Circular dichroism, percent helicity; assay type: physicochemical
Description: Briefly, spectra were obtained using a cell with a 0.1 cm path length and measurements were taken every nm from 260 nm to 190 nm at 25° C. All the CD spectra were signal averaged by adding four scans, base line corrected and smoothed. Peptide solutions in PBS, pH 7.4, were used at a concentration of 11 μM. Peptide-DMPC complexes (1:20 mol:mol) were used to determine the effect of lipid binding on the helicity of these peptides. These complexes were prepared by adding the appropriate volume of peptide solution to DMPC multilamellar vesicles. DMPC multilamellar vesicles were prepared as follows: A known amount of lipid was dissolved in ethanol and the solvent was removed by evaporating slowly under a thin stream of nitrogen. Residual solvent was removed by storing the lipid film under vacuum overnight. An appropriate volume of PBS, pH 7.4 was added to the thin lipid film to give the required final concentration of DMPC.

[8] = DSC, chain melting transition of DMPC; assay type: physicochemical; settings: DMPC/peptide 100:1 (mol/mol)
Description: (§1) A known amount of phospholipid was dissolved in chloroform. For one set of samples, peptide was dissolved in methanol and added to a solution of DiPoPE in chloroforn/methanol (2:1, v:v). For both, pure lipid samples and the organic solutions of lipid and peptide, solvent was removed under a slow stream of nitrogen. Residual solvent was removed under vacuum. […] For DMPC, four consecutive scans with a 60 minute equilibration time between scans were taken. DSC thermograms were analyzed using the software provided by MicroCal Inc., Amherst, Mass., and Origin, version 5.0.
The effect of these 18A analogues on the chain melting transition of multilamellar vesicles of DMPC was studied by DSC using peptide-lipid mixtures at 100:1 lipid/peptide molar ratio.

[9] = DSC, bilayer to hexagonal phase transition of DiPoPE; assay type: physicochemical; settings: heating scan rate 37°/h
Description: as §1
In the current study we prepared the peptide-lipid mixtures in two ways. One was by adding the peptide in organic solvent to the lipid in organic solvent followed by depositing the material as a film and subsequently hydrating with buffer. In the other method, the peptide and lipid were mixed after each was hydrated separately. If the mixture comes to equilibrium prior to the DSC analysis, it should not matter how the peptide and lipid are originally mixed. However, membrane systems can equilibrate slowly, in which case there may be more peptide in the lipid when it was incorporated at high concentrations into the lipid film.

[10] = Right angle light scattering, dissolution of EPC MLVs; assay type: physicochemical; settings: 105 μM EPC, equimolar peptide, 25° C., 30 min
Description: EPC MLVs were prepared by evaporating a solution of EPC (Avanti Polar, AL) under nitrogen and hydrating the lipid film with phosphate-buffered saline (pH 7.4). […] Turbidity clarification was monitored for 30 min.

[11] = system: human artery wall cell cocultures; assay: LDL-induced monocyte chemotactic activity with the homologous series of peptides (Example 3); assay type: cell-based; settings: peptide at 100 μg/ml, LDL 250 μg protein/ml, 8 h
Description: Microtitre plates were treated with 0.1% gelatin at 37° C. overnight. HASMC were added at a confluent density of 1×10^5 cells/cm^2. […] HAEC were subsequently added at 2×10^5 cells/cm^2 and were allowed to grow, forming a complete monolayer of confluent HAEC in two days. In all experiments, HAEC and autologous HASMC (from the same donor) were used at passage levels of four to six. […] The cocultures were treated with native LDL(250 μg protein/ml) or presence of HDL (350 μg protein/ml) or peptides for 8 h.

[12] = Non-denaturing PAGE, self-association; assay type: physicochemical; settings: 100 and 250 μg/ml
Description: Non-denaturing and SDS-PAGE and was carried out using the method of Laemmli (1970) Nature 227: 680–685. Premade Novex gels were used and the gel was stained with Coomassie blue to identify the protein bands.

[13] = system: C57 BL6 mice; assay: Diet-induced lesion formation with 2F; assay type: in vivo, mouse
Excerpt: It follows that in this mouse model, inhibition of LDL-induced monocyte chemotaxis is more anti-atherogenic than LCAT activation. Since the peptides 2F and 4F are similar in activating LCAT, and 4F and 5F are similar in removing “seeding molecules” from LDL, the peptide 4F may serve as a reagent to distinguish between the importance of LCAT activation and the inhibition of LDL-induced monocyte chemotaxis in different atherosclerosis-sensitive mouse models. If the inhibition of LDL-induced chemotaxis is more important than the LCAT-activating ability, then 4F should be better peptide to use as an inhibitor of atherosclerosis since this peptide is more soluble than the peptides 5F, 6F and 7F.

[14] = LDL receptor null mice, Western diet, gavage twice daily 6 weeks
[15] = 2.5 mg/mouse/day in drinking water
[16] = 5.0 mg/mouse/day in drinking water

Compound: CC(=O)N[C@H](CC(=O)O)C(=O)N[C@H](Cc1c[nH]c2ccccc12)C(=O)N[C@H](Cc1ccccc1)C(=O)N[C@H](CCCCN)C(=O)N[C@H](C)C(=O)N[C@H](Cc1ccccc1)C(=O)N[C@H](Cc1ccc(O)cc1)C(=O)N[C@H](CC(=O)O)C(=O)N[C@H](CCCCN)C(=O)N[C@@H](C(=O)N[C@H](C)C(=O)N[C@H](CCC(=O)O)C(=O)N[C@H](CCCCN)C(=O)N[C@H](Cc1ccccc1)C(=O)N[C@H](CCCCN)C(=O)N[C@H](CCC(=O)O)C(=O)N[C@H](C)C(=O)N[C@H](Cc1ccccc1)C(N)=O)C(C)C [Peptide D-4F, Ac-D-W-F-K-A-F-Y-D-K-V-A-E-K-F-K-E-A-F-NH2]
- biologically active oxidized phospholipids in the aorta after influenza A infection [1]: not generated beyond background
- plasma paraoxonase levels after influenza A infection [1]: did not fall
- reduction in atherosclerotic lesions [2]: 79% and 81%
- Total cholesterol [3, 14]: 761 ± 69 mg/dL
- mean HDL-cholesterol level [3, 14]: 73 ± 8.7 mg/dL
- Mean HDL-cholesterol [3, 15]: 38.7 ± 5 mg/dL
- plasma total cholesterol concentration [3, 15]: 534 ± 12.3 mg/dL
- Mean HDL-cholesterol [3, 16]: 43.4 ± 6 mg/dL
- plasma total cholesterol concentration [3, 16]: 579 ± 4.6 mg/dL
- HDL protective capacity [4]: enhance HDL protective capacity
- LDL-induced monocyte chemotactic activity (mouse LDL) [4]: decrease LDL-induced monocyte chemotactic activity

Compound: Ac-DWLKAFYDKVAEKLKEAF-NH2 [Peptide 2F, Ac-D-W-L-K-A-F-Y-D-K-V-A-E-K-L-K-E-A-F-NH2]
- Solubility [5]: >2000 µg/mL
- solubility ([5]; read-out: Solubility): 1250 to 1400 µg/mL
- Monolayer Exclusion Pressure(πc) [6]: 38 dyn/cm
- Percent Helicity PBS ([7]; 11 μM peptide in PBS): 55%
- Percent Helicity DMPC ([7]; 11 μM peptide, Peptide: DMPC 1:20 (mol/mol)): 72%
- TCM(° C.) ([8]; 1.5 mM DMPC, chain melting transition temperature): 23.2 °C
- ΔHCM (kcals/mol) ([8]; enthalpy of the transition): 4.5 kcals/mol
- ΔT1/2 (° C.) ([8]; width at half maximum of the transition): 0.5 °C
- shift in TH of DiPoPE with mol fraction of peptide [9]: linear increase in TH
- clarification of EPC MLVs [10]: clarified the EPC MLVs to a similar extents
- inhibition of LDL-induced monocyte chemotaxis [11]: some inhibitory activity
- self-association on non-denaturing PAGE [12]: forms aggregates in a concentration dependent manner
- mean lesion area ([13]; 2F-administered mice, n=15, PBS control 14.7±1.8): 13.2±1.7 μm^2×10^−3
- inhibition of diet-induced lesion formation ([13]; C57 BL6 mice): did not significantly inhibit diet-induced lesion formation
